The values that follow come from US10829458B2 (Araxes Pharma LLC, priority 2015, dated 2020).

The test deals with T1, KRAS G12C 1-169, his-tagged protein, GDP-loaded (Homo sapiens, UniProt P01116, G12C).
T1 construct: KRAS G12C 1-169, his-tagged protein, GDP-loaded
Kind of test: Biochemical assay: covalent modification of KRAS G12C measured by mass spectrometry (RapidFire/TOF or Q-Exactive). As to conditions: covalent binding to KRAS G12C. A digest of the protocol:
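GDP-loaded his-tagged KRAS G12C 1-169 at 2 μM in 20 mM Hepes, 150 mM NaCl, 1 mM MgCl2 incubated at room temperature with compound (10, 30 or 100 μM final, 2% DMSO) for 30 min, 2 h or 24 h, then quenched with formic acid. Intact-protein LC-MS (RapidFire/TOF or Q-Exactive) with deconvolution quantified modified versus unmodified protein.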

Each structure is given as a SMILES string.

Take `C=CC(=O)N1CCN(c2ncnc3c(F)c(-c4c(O)cccc4F)c(Cl)cc23)C2CC21` (centres unmarked) [III-16, 1-(5-(6-chloro-8-fluoro-7-(2-fluoro-6-hydroxy-phenyl)quinazolin-4-yl)-2,5-diazabicyclo [4.1.0.]heptan-2-yl)prop-2-en-1-one]: the Binding % result (compounds of structure (III)) is “+ (+ indicates binding activity up to 50%)”.
As to `C=CC(=O)N1CCN(c2nc(OCCN3CCN(C(C)C)CC3)nc3c(F)c(-c4c(O)cccc4F)c(Cl)cc23)CC1` [Example I-42, 1-(4-(6-chloro-8-fluoro-7-(2-fluoro-6-hydroxyphenyl)-2-(2-(4-isopropyl-piperazin-1-yl)ethoxy)quinazolin-4-yl)piperazin-1-yl)prop-2-en-1-one], under “compounds of structure (I)”, the Binding % entry is given as “+++ (+++ indicates binding activity greater than 90%)”.
On the same count and under the same terms, the result for `C=CC(=O)N1CCN(c2nc(OCCN3CC(F)(F)C3)nc3c(F)c(-c4c(O)cccc4F)c(Cl)cc23)CC1` (atropisomer, axis not shown) [Example I-125, (S)-1-(4-(6-chloro-2-(2-(3,3-difluoro-azetidin-1-yl)ethoxy)-8-fluoro-7-(2-fluoro-6-hydroxyphenyl)quinazolin-4-yl)piperazin-1-yl) prop-2-en-1-one] reads “+++ (+++ indicates binding activity greater than 90%)”; that for `C=CC(=O)N1CCN(c2nc(OCCN3CCC(F)(F)C3)nc3c(F)c(-c4c(O)cccc4F)c(Cl)cc23)CC1` (atropisomer, axis not shown) [Example I-98, (R)-1-(4-(6-chloro-2-(2-(3,3-difluoro-pyrrolidin-1-yl)ethoxy)-8-fluoro-7-(2-fluoro-6-hydroxyphenyl)quinazolin-4-yl)piperazin-1-yl) prop-2-en-1-one], “+ (+ indicates binding activity up to 50%)”; that for `C=CC(=O)N1CCN(c2nc(OCCN3CCCC3=O)nc3c(F)c(-c4c(C)ccc5[nH]ncc45)c(Cl)cc23)CC1` [Example I-1, 1-(2-(4-(4-acryloylpiperazin-1-yl)-6-chloro-8-fluoro-7-(5-methyl-1H-indazol-4-yl)quinazolin-2-yloxy)ethyl) pyrrolidin-2-one], “+++ (+++ indicates binding activity greater than 90%)”.
Still for that read-out and setting: the result for `C=CC(=O)N1CCN(c2nc(OCCc3ncccn3)nc3c(F)c(-c4c(C)ccc5[nH]ncc45)c(Cl)cc23)CC1` [Example I-139, 1-(4-(6-chloro-8-fluoro-7-(5-methyl-1H-indazol-4-yl)-2-(2-(pyrimidin-2-yl)ethoxy)quinazolin-4-yl)piperazin-1-yl) prop-2-en-1-one] reads “+++ (+++ indicates binding activity greater than 90%)”; that for `C=CC(=O)N1CCN(c2nc(C(N)=O)nc3c(F)c(-c4c(O)cccc4F)c(Cl)cc23)CC1` [Example I-85, 4-(4-acryloyl-piperazin-1-yl)-6-chloro-8-fluoro-7-(2-fluoro-6-hydroxyphenyl) quinazoline-2-carboxamide], “+++ (+++ indicates binding activity greater than 90%)”; that for `C=CC(=O)N1CCN(c2nc(N)nc3c(F)c(-c4c(C)ccc5[nH]ncc45)c(Cl)cc23)CC1` [Example I-189, 1-(4-(2-amino-6-chloro-8-fluoro-7-(5-methyl-1H-indazol-4-yl)quinazolin-4-yl)piperazin-1-yl) prop-2-en-1-one], “++ (++ indicates binding activity from 50 to 90%)”.
The same measure, in the same setting: the result for `C=CC(=O)N1CCN(c2nc(OCCc3ccccn3)nc3c(F)c(-c4c(O)cccc4F)c(Cl)cc23)CC1` (atropisomer, axis not shown) [Example I-102, (R)-1-(4-(6-chloro-8-fluoro-7-(2-fluoro-6-hydroxyphenyl)-2-(2-(pyridin-2-yl)ethoxy)quinazolin-4-yl)piperazin-1-yl) prop-2-en-1-one] reads “+ (+ indicates binding activity up to 50%)”; that for `C=CC(=O)N1CCN(c2nc(NC3CCN(CC(F)F)CC3)nc3c(F)c(-c4c(C)ccc5[nH]ncc45)c(Cl)cc23)CC1` [Example I-167, 1-(4-(6-chloro-2-((1-(2,2-difluoroethyl)piperidin-4-yl)amino)-8-fluoro-7-(5-methyl-1H-indazol-4-yl)quinazolin-4-yl)piperazin-1-yl) prop-2-en-1-one], “++ (++ indicates binding activity from 50 to 90%)”.
For the compound `C=CC(=O)N1CCN(c2nc(N3CC(N4CCC4)C3)nc3c(F)c(-c4c(O)cccc4F)c(Cl)cc23)CC1` [Example I-162, 1-(4-(2-([1,3′-biazetidin]-1′-yl)-6-chloro-8-fluoro-7-(2-fluoro-6-hydroxyphenyl)quinazolin-4-yl)piperazin-1-yl) prop-2-en-1-one], the Binding % entry (compounds of structure (I)) is on record as “+ (+ indicates binding activity up to 50%)”.
On the same count and under the same terms, with `C=CC(=O)N1CCN(c2nc(SCCN3CCOCC3)nc3c(F)c(-c4c(O)cccc4F)c(Cl)cc23)CC1` [Example I-17, 1-(4-(6-chloro-8-fluoro-7-(2-fluoro-6-hydroxyphenyl)-2-(2-morpholino-ethylthio)quinazolin-4-yl)piperazin-1-yl)prop-2-en-1-one] the entry was “++ (++ indicates binding activity from 50 to 90%)”.
As for `C=CC(=O)N1CCN(c2nc(N3CC(CN(C)C)C3)nc3c(F)c(-c4c(C)ccc5[nH]ncc45)c(Cl)cc23)CC1` [Example I-159, 1-(4-(6-chloro-2-(3-((dimethyl-amino)methyl)azetidin-1-yl)-8-fluoro-7-(5-methyl-1H-indazol-4-yl)quinazolin-4-yl)piperazin-1-yl) prop-2-en-1-one], the Binding % result (compounds of structure (I)) is recorded as “+++ (+++ indicates binding activity greater than 90%)”.
On to `C=CC(=O)N1CCN(c2nc(N3CC(N(C)C)C3)nc3c(F)c(-c4cc(O)cc5ccccc45)c(Cl)cc23)CC1` [Example I-106, 1-(4-(6-chloro-2-(3-(dimethyl-amino)azetidin-1-yl)-8-fluoro-7-(3-hydroxy-naphthalen-1-yl)quinazolin-4-yl)piperazin-1-yl) prop-2-en-1-one], for which the Binding % entry (compounds of structure (I)) is recorded as “+++ (+++ indicates binding activity greater than 90%)”.
For the compound `C=CC(=O)N1CCN(c2nc(N3CC(N4CCN(C5CC5)CC4)C3)nc3c(F)c(-c4c(C)ccc5[nH]ncc45)c(Cl)cc23)CC1` [Example I-176, 1-(4-(6-chloro-2-(3-(4-cyclopropyl-piperazin-1-yl)azetidin-1-yl)-8-fluoro-7-(5-methyl-1H-indazol-4-yl)quinazolin-4-yl)piperazin-1-yl) prop-2-en-1-one], the Binding % entry (compounds of structure (I)) is “++ (++ indicates binding activity from 50 to 90%)”.
Take `C=CC(=O)N1CCN(c2nc(OCC3OCCO3)nc3c(F)c(-c4c(C)ccc5[nH]ncc45)c(Cl)cc23)CC1` [Example I-164, 1-(4-(2-((1,3-dioxolan-2-yl)methoxy)-6-chloro-8-fluoro-7-(5-methyl-1H-indazol-4-yl)quinazolin-4-yl)piperazin-1-yl) prop-2-en-1-one]: the Binding % result (compounds of structure (I)) is listed as “++ (++ indicates binding activity from 50 to 90%)”.
Same read-out and setting: the result for `C=CC(=O)N1CCN(c2nc(NC3CCN(CC(F)(F)F)CC3)nc3c(F)c(-c4c(O)cccc4F)c(Cl)cc23)CC1` [Example I-21, 1-(4-(6-chloro-8-fluoro-7-(2-fluoro-6-hydroxyphenyl)-2-(1-(2,2,2-trifluoroethyl)piperidin-4-ylamino)quinazolin-4-yl)piperazin-1-yl)prop-2-en-1-one] reads “+ (+ indicates binding activity up to 50%)”.
As to `C=CC(=O)N1CCN(c2nc(OCCN3CCOCC3)nc3c(F)c(-c4c(O)cccc4F)c(Cl)cc23)CC1` [Example I-10, 1-(4-(6-chloro-8-fluoro-7-(2-fluoro-6-hydroxyphenyl)-2-(2-morpholino-ethoxy)quinazolin-4-yl)piperazin-1-yl)prop-2-en-1-one], the Binding % result (compounds of structure (I)) is recorded as “+++ (+++ indicates binding activity greater than 90%)”.
Consider `C=CC(=O)N1CCN(c2nc(C#N)nc3c(F)c(-c4c(O)cccc4F)c(Cl)cc23)CC1` [Example I-68, 4-(4-acryloyl-piperazin-1-yl)-6-chloro-8-fluoro-7-(2-fluoro-6-hydroxyphenyl) quinazoline-2-carbonitrile], for which the Binding % entry (compounds of structure (I)) is reported as “+++ (+++ indicates binding activity greater than 90%)”.
On the same count and under the same terms, the result for `C=CC(=O)N1CCN(c2nc(N3CC(N4CCN(C)CC4)C3)nc3c(F)c(-c4c(O)cccc4F)c(Cl)cc23)CC1` [Example I-41, 1-(4-(6-chloro-8-fluoro-7-(2-fluoro-6-hydroxyphenyl)-2-(3-(4-methyl-piperazin-1-yl)azetidin-1-yl)quinazolin-4-yl)piperazin-1-yl)prop-2-en-1-one] reads “+++ (+++ indicates binding activity greater than 90%)”; that for `C=CC(=O)N1CCN(c2nc(N3CC4(CCOC4)C3)nc3c(F)c(-c4c(C)ccc5[nH]ncc45)c(Cl)cc23)CC1` [Example I-156, 1-(4-(6-chloro-8-fluoro-7-(5-methyl-1H-indazol-4-yl)-2-(6-oxa-2-azaspiro[3,4]octan-2-yl)quinazolin-4-yl)piperazin-1-yl) prop-2-en-1-one], “+++ (+++ indicates binding activity greater than 90%)”; that for `C=CC(=O)N1CCN(c2nc(OCc3ncco3)nc3c(F)c(-c4c(O)cccc4F)c(Cl)cc23)CC1` [Example I-109, 1-(4-(6-chloro-8-fluoro-7-(2-fluoro-6-hydroxyphenyl)-2-(oxazol-2-ylmethoxy)quinazolin-4-yl)piperazin-1-yl) prop-2-en-1-one], “+++ (+++ indicates binding activity greater than 90%)”.
Regarding `C=CC(=O)N1CCN(c2ncnc3c(F)c(-c4c(C)ccc5[nH]ncc45)c(Cl)cc23)[C@@H](C)C1` [III-25, 1-((3S)-4-(6-chloro-8-fluoro-7-(5-methyl-1H-indazol-4-yl)quinazolin-4-yl)-3-methyl-piperazin-1-yl)prop-2-en-1-one], under “compounds of structure (III)”, the Binding % result is “+++ (+++ indicates binding activity greater than 90%)”.
